From ChEMBL document CHEMBL4138052, “Synthesis, characterization, solubilization, cytotoxicity and antioxidant activity of aminomethylated dihydroquercetin” (Medchemcomm, 2017)
In brackets after ≈: the same amount, converted by molar mass. Activity calls are given as the source filed them. No cut-off for these calls is given here.

What was measured:
[1] = Antioxidant activity assessed as ABTS radical scavenging activity incubated for 6 mins by spectrophotometry; assay type: functional
[2] = Antioxidant activity assessed as DPPH radical scavenging activity at 0.09 mM incubated for 30 mins; assay type: functional
[3] = Reducing power of the compound assessed as reducing Fe3+ power at 0.15 to 1.2 mM using potassium ferricyanide in pH 6.6 KH2PO4-K2HPO4 buffer by UV spectrophotometry; assay type: physicochemical; conditions: pH 6.6, 1200 µM
[4] = Antioxidant activity assessed as DPPH radical scavenging activity using micronized compound; assay type: functional
[5] = tested on: HEK293; experiment: Stimulation of cell growth in HEK293 cells assessed as cell growth rate at 200 uM incubated for 48 hrs by MTT assay; assay type: functional; conditions: Homo sapiens, HEK293, 48 h; read-out: Activity
[6] = Ratio of solubility of DHQ to solubility of test compound in water at pH 5.7 under nitrogen and sheltered from light condition incubated for 1 hr; assay type: physicochemical; conditions: buffer, pH 5.7, 1 h
[7] = Thermal stability of the compound assessed as drug degradation by measuring compound weight loss at 217 to 600 degC; assay type: physicochemical; conditions: read-out: Drug degradation
[8] = Antioxidant activity assessed as ABTS radical scavenging activity at 0.1 mM incubated for 6 mins by spectrophotometry; assay type: functional
[9] = Dissolution of the compound at 0.12 mg measured at 38 mins by UV spectrophotometry; assay type: physicochemical
[10] = Safety index, ratio of EC50 for aristolochic acid to EC50 for test compound for cytotoxicity in HEK293 cells assessed as reduction in cell survival incubated for 48 hrs by MTT assay; assay type: cell-based; conditions: human, read-out: Ratio EC50
[11] = Antioxidant activity assessed as DPPH radical scavenging activity at 0.03 to 0.06 mM incubated for 30 mins; assay type: functional
[12] = tested on: HEK293; experiment: Stimulation of cell growth in HEK293 cells assessed as increase in cell survival at 2 to 360 uM incubated for 48 hrs by MTT assay; assay type: functional, cell-based; conditions: Homo sapiens
[13] = tested on: HeLa; experiment: Cytotoxicity in human HeLa cells assessed as reduction in cell survival incubated for 48 hrs by MTT assay; assay type: functional, cell-based
[14] = Solubility in PBS using micronized compound measured at 60 mins; assay type: physicochemical
[15] = Dissolution of the compound at 0.12 mg measured at 360 mins by UV spectrophotometry; assay type: physicochemical; conditions: 6 h
[16] = Solubility in water at pH 5.7 under nitrogen and sheltered from light condition incubated for 1 hr; assay type: physicochemical
[17] = tested on: HEK293; experiment: Potency index, ratio of cell growth stimulation activity of DHQ to cell growth stimulation activity of test compound for stimulation of cell growth in HEK293 cells assessed as cell growth rate at 200 uM incubated for 48 hrs by MTT assay; assay type: functional, Homo sapiens
[18] = tested on: HEK293; experiment: Cytotoxicity in HEK293 cells assessed as reduction in cell survival incubated for 48 hrs by MTT assay; assay type: cell-based; conditions: Homo sapiens, HEK293, 48 h
[19] = Thermal stability of the compound assessed as drug degradation by measuring compound weight loss at 30 to 100 degC; assay type: physicochemical; conditions: read-out: Drug degradation
[20] = Thermal stability of the compound assessed as drug degradation by measuring compound weight loss at 247 to 600 degC; assay type: physicochemical; conditions: read-out: Drug degradation

Question: For `O=C(O)C1CCCN1Cc1c(O)c(CN2CCCC2C(=O)O)c2c(c1O)C(=O)[C@@H](O)[C@H](c1ccc(O)c(O)c1)O2` (some centres undefined), which IC50 [1] is on record?
Answer: 42 µM

Question: What about the Activity [2] of the same compound?
Answer: 85.7%

Question: What about the Activity [3] of the same compound?
Answer: Dose-dependent effect

Question: What about the IC50 [4] of the same compound?
Answer: 22 mg/L (≈ 39.4 µM)

Question: And the growth at 200 µM [5]?
Answer: 54.5%

Question: What about the Ratio [6] of the same compound?
Answer: 16

Question: And the degraded [7]?
Answer: 64.8%

Question: What about the Activity [8] of the same compound?
Answer: 98.3%

Question: What about the Activity [9] of the same compound?
Answer: 87.1%

Question: What about the selectivity ratio at 48 h [10] of the same compound?
Answer: 7

Question: What about the Activity [11] of the same compound?
Answer: Active

Question: What about the Activity [12] of the same compound?
Answer: Active

Question: What about the Activity [13] of the same compound?
Answer: Dose-dependent effect

Question: And the EC50 [13]?
Answer: 138 µM

Question: And the solubility at 1 h [14]?
Answer: 0.21 mg/mL (≈ 376 µM)

Question: What about the Activity [15] of the same compound?
Answer: 83.78%

Question: And the solubility at 1 h [16]?
Answer: 19.5 mg/mL (≈ 35000 µM)

Question: What about the Ratio [17] of the same compound?
Answer: 2.5

Question: What about the EC50 [18] of the same compound?
Answer: 820 µM

Question: For `O=C1c2c(O)cc(O)cc2O[C@H](c2ccc(O)c(O)c2)[C@H]1O` [(+)-TAXIFOLIN], which IC50 [1] is on record?
Answer: 48 µM

Question: What about the Activity [2] of the same compound?
Answer: 88.7%

Question: What about the degraded [19] of the same compound?
Answer: 10.1%

Question: What about the Activity [3] of the same compound?
Answer: Dose-dependent effect

Question: And the IC50 [4]?
Answer: 500 mg/L (≈ 1640 µM)

Question: What about the degraded [20] of the same compound?
Answer: 43.4%

Question: And the growth at 200 µM [5]?
Answer: 22.6%

Question: What about the Activity [8] of the same compound?
Answer: 84.9%

Question: And the Activity [9]?
Answer: 13.8%

Question: What about the selectivity ratio at 48 h [10] of the same compound?
Answer: 5.6

Question: And the Activity [11]?
Answer: Active

Question: And the Activity [12]?
Answer: Active

Question: What about the Activity [13] of the same compound?
Answer: Dose-dependent effect

Question: And the EC50 [13]?
Answer: 125 µM

Question: And the solubility at 1 h [14]?
Answer: 0.02 mg/mL (≈ 65.7 µM)

Question: And the solubility at 1 h [16]?
Answer: 1.2 mg/mL (≈ 3940 µM)

Question: And the EC50 [18]?
Answer: 671 µM

Question: For `COc1cccc2c1cc([N+](=O)[O-])c1c(C(=O)O)cc3c(c12)OCO3` [ARISTOLOCHIC ACID], which EC50 [18] is on record?
Answer: 118 µM

Question: With `O=C1O[C@H]([C@@H](O)CO)C(O)=C1O` [ASCORBIC ACID] as the compound, how does the IC50 [1] read?
Answer: 42 µM

Question: What about the Activity [3] of the same compound?
Answer: Dose-dependent effect
